# Data reported in patent US8420673B2, “Fungicidal amides” (E I du Pont de Nemours and Company, priority 2007, dated 2013).
# Read-outs that look alike come from different tables or passages of the source.
# What was measured:
# Type in all cases: in vivo
# Plasmopara viticola = assay: Test A: grape downy mildew, test suspension sprayed after inoculation, visual disease rating; details: grape seedlings, sprayed to run-off 24 h after inoculation
# Phytophthora infestans [1] = details: tomato seedlings, sprayed to run-off the day before inoculation
# Phytophthora infestans [2] = details: tomato seedlings, sprayed to run-off 17 h after inoculation
# [3] = no asterisk, test concentration not given
SMILES,Test A rating (disease control) (Plasmopara viticola; [3]) [%],Test B rating (disease control) (Phytophthora infestans [1]; [3]) [%],Test C rating (disease control) (Phytophthora infestans [2]; [3]) [%],Test A rating (disease control) (Plasmopara viticola; compound tested at 40 ppm) [%],Test B rating (disease control) (Phytophthora infestans [1]; compound tested at 40 ppm) [%],Test C rating (disease control) (Phytophthora infestans [2]; compound tested at 40 ppm) [%]
"Cc1cc(C(F)(F)F)nn1CC(=O)N1CCC(c2nc(CN(C)[C@@H]3CCCc4ccccc43)cs2)CC1 [Compound 1, 1-[4-[4-[[methyl[(1R)-1,2,3,4-tetrahydro-1-naphthalenyl]amino]methyl]-2-thiazolyl]-1-piperidinyl]-2-[5-methyl-3-(trifluoromethyl)-1H-pyrazol-1-yl]ethanone]",72,100,99,–,–,–
"Cc1cc(C(F)(F)F)nn1CC(=O)N1CCC(c2nc(CN[C@@H]3CCCc4ccccc43)cs2)CC1 [Compound 2, 2-[5-methyl-3-(trifluoromethyl)-1H-pyrazol-1-yl]-1-[4-[4-[[[(1R)-1,2,3,4-tetrahydro-1-naphthalenyl]amino]methyl]-2-thiazolyl]-1-piperidinyl]ethanone]",28,100,93,–,–,–
"CC(=O)N(Cc1csc(C2CCN(C(=O)Cn3nc(C(F)(F)F)cc3C)CC2)n1)[C@@H]1CCCc2ccccc21 [Compound 3, N-[[2-[1-[2-[5-methyl-3-(trifluoromethyl)-1H-pyrazol-1-yl]acetyl]-4-piperidinyl]-4-thiazolyl]methyl]-N-[(1R)-1,2,3,4-tetrahydro-1-naphthalenyl]acetamide]",55,85,53,–,–,–
"Cc1cc(C(F)(F)F)nn1CC(=O)N1CCC(c2nc(CN(C=O)[C@@H]3CCCc4ccccc43)cs2)CC1 [Compound 4, N-[[2-[1-[2-[5-methyl-3-(trifluoromethyl)-1H-pyrazol-1-yl]acetyl]-4-piperidinyl]-4-thiazolyl]methyl]-N-[(1R)-1,2,3,4-tatrahydro-1-naphthalenyl]formamide]",0,87,26,–,–,–
"Cc1cc(C(F)(F)F)nn1CCC(=O)N1CCC(c2nc(C(=O)N(C)[C@@H]3CCCc4ccccc43)cs2)CC1 [Compound 5, N-methyl-2-[1-[3-[5-methyl-3-(trifluoromethyl)-1H-pyrazol-1-yl]-1-oxopropyl]-4-piperidinyl]-N-[(1R)-1,2,3,4-tetrahydro-1-naphthalenyl]-4-thiazolecarboxamide]",–,–,–,17,57,0
"CCOC(=O)C(C(=O)N1CCC(c2nc(C(=O)N(C)C3CCCc4ccccc43)cs2)CC1)n1nc(C(F)(F)F)cc1C (stereo not drawn) [Compound 6, ethyl 4-[4-[[methyl(1,2,3,4-tetrahydro-1-naphthalenyl)amino]carbonyl]-2-thiazolyl]-α-[5-methyl-3-(trifluoromethyl)-1H-pyrazol-1-yl]-β-oxo-1-piperidinepropanoate]",–,–,–,72,17,0
